Results published in ChEMBL document CHEMBL1126700, “Synthesis and serotonergic activity of 5-(oxadiazolyl)tryptamines: potent agonists for 5-HT1D receptors” (J Med Chem, 1993).

Experiments:
[1] = Partition coefficient (logD7.4); conditions: octanol/water, pH 7.4
[2] = target: 5-hydroxytryptamine receptor 1D (Sus scrofa, UniProt P79400); assay: Displacement of radioligand [3H]5-HT binding to 5-hydroxytryptamine 1D receptor in pig caudate membrane; type: cell membranes
[3] = target: Serotonin 2 (5-HT2) receptor (Rattus norvegicus, UniProt P30994+P08909+P14842); assay: isplacement of [3H]DOB from rat cortex homogenate 5-hydroxytryptamine 2 receptor
[4] = target: T1, Serotonin 3 (5-HT3) receptor (Rattus norvegicus, UniProt P35563+Q9JJ16); assay: Displacement of [3H]-Q-ICS 205-930 from rat cortex homogenate 5-hydroxytryptamine 3 receptor
T1 sequence (P35563 whole entry): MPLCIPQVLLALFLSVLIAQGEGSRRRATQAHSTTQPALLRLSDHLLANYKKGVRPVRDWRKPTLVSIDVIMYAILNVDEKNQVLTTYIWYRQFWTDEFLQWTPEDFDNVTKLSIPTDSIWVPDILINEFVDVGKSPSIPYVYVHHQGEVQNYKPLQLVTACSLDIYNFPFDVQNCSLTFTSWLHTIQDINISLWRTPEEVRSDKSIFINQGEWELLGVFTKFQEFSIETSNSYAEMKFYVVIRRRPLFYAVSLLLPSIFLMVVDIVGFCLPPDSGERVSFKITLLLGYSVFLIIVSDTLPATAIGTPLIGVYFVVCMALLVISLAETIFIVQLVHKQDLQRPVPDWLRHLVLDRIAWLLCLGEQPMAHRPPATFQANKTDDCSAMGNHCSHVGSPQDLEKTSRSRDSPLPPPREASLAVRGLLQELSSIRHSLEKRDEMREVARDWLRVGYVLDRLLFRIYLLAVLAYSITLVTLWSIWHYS
T1 sequence (Q9JJ16 whole entry): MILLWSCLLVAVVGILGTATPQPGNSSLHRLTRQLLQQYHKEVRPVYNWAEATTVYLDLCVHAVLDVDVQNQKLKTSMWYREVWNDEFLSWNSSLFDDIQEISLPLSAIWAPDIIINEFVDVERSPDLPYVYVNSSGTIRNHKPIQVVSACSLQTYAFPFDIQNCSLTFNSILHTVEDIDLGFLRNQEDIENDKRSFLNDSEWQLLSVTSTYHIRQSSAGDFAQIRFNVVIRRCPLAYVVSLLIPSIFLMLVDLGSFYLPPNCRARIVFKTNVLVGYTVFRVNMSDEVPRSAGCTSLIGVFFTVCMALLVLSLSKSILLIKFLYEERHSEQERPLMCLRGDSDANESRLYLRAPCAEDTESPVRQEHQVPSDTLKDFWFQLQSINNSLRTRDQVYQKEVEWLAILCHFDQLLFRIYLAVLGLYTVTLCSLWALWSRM

[5] = organism: Oryctolagus cuniculus; assay: Relative maximum is the relative efficacy for serotonergic activity on rabbit saphenous vein with respect to 1 uM 5-HT; type: functional
[6] = organism: Oryctolagus cuniculus; assay: Serotonergic activity was assessed in vitro on the New Zealand white rabbit saphenous vein preparation; type: functional
[7] = organism: Oryctolagus cuniculus; assay: Relative maximum is the relative efficacy with respect to 1 uM 5-HT; type: functional

Sequence of 5-hydroxytryptamine receptor 1D (P79400 whole entry): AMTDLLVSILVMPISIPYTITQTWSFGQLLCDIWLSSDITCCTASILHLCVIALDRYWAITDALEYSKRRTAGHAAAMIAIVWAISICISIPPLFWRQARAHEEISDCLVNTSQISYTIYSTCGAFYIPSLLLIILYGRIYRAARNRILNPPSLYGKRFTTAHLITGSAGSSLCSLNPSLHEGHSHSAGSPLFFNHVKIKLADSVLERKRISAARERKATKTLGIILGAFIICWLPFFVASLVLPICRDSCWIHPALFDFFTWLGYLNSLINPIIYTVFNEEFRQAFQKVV

Compound | logD [1] | IC50 [2] [µM] | pIC50 [3] | IC50 [4] [µM] | also measured
CNS(=O)(=O)Cc1ccc2[nH]cc(CCN(C)C)c2c1 | -1.17 | – | – | – | –
NCCc1c[nH]c2ccc(C(N)=O)cc12 | – | 0.00398 | – | – | –
CN(C)CCc1c[nH]c2ccc(-c3nc(Cc4ccc(NS(C)(=O)=O)cc4)no3)cc12 | 1.25 | 0.00126 | – | – | –
NCCc1c[nH]c2ccc(-c3nc(Cc4ccccc4)no3)cc12 | 1.32 | 0.00631 | 5.9 | > 10 | –
CNC(=O)c1ccc(-c2noc(-c3ccc4[nH]cc(CCN)c4c3)n2)cc1 | – | 0.000794 | – | – | –
Cc1noc(CCCc2ccc3[nH]cc(CCN)c3c2)n1 | – | 0.00501 | – | – | –
CCc1noc(-c2ccc3[nH]cc(CCN)c3c2)n1 | 0.13 | 0.0126 | – | – | –
CC(=O)Nc1ccc(Cc2noc(-c3ccc4[nH]cc(CCN)c4c3)n2)cc1 | 0.48 | 0.000501 | 6.4 | > 10 | Relative maximum [5]: 1; EC50 [6]: 0.0126 µM
NCCc1c[nH]c2ccc(-c3nc(N)no3)cc12 | -0.72 | 0.0501 | – | – | –
NCCc1c[nH]c2ccc(Cc3nc(Cc4ccccc4)no3)cc12 | 0.42 | 0.0316 | – | – | –
COc1ccccc1Cc1noc(-c2ccc3[nH]cc(CCN)c3c2)n1 | 1.38 | 0.0158 | – | – | –
NCCc1c[nH]c2ccc(Cc3nc(-c4ccccc4)no3)cc12 | – | 0.02 | – | – | –
CN(C)CCc1c[nH]c2ccc(CCc3nc(N)no3)cc12 | – | 0.0126 | 6.7 | 6.31 | EC50 [6]: 0.2 µM
CN(C)CCc1c[nH]c2ccc(-c3nc(Cc4ccccc4)no3)cc12 | – | 0.00631 | – | – | –
CS(=O)(=O)Nc1ccc(Cc2noc(Cc3ccc4[nH]cc(CCN)c4c3)n2)cc1 | -0.54 | 0.00316 | – | – | –
CN(C)CCc1c[nH]c2ccc(-c3nc(N)no3)cc12 | 0.2 | 0.0794 | – | – | –
Cc1noc(-c2ccc3[nH]cc(CCN)c3c2)n1 | -0.37 | 0.01 | 5.8 | > 10 | Relative maximum [5]: 1; EC50 [6]: 0.251 µM
CC(=O)NCc1noc(-c2ccc3[nH]cc(CCN)c3c2)n1 | – | 0.02 | – | – | –
NCCc1c[nH]c2ccc(Cc3nc(N)no3)cc12 | – | 0.02 | 6.1 | > 10 | EC50 [6]: 0.158 µM
CN(C)CCc1c[nH]c2ccc(Cc3nc(N)ns3)cc12 | – | 0.002 | 6.9 | 2.4 | Relative maximum [5]: 1.1

Compound | logD [1] | IC50 [2] [µM] | pIC50 [3] | IC50 [4] [µM] | also measured
NCCc1c[nH]c2ccc(CCCc3nc(Cc4ccccc4)no3)cc12 | – | 0.00158 | – | – | –
CNC(=O)c1ccc(-c2noc(Cc3ccc4[nH]cc(CCN(C)C)c4c3)n2)cc1 | 1.45 | 0.002 | – | – | –
NCCc1c[nH]c2ccc(-c3nc(C4CC4)no3)cc12 | 0.6 | 0.00794 | 5.6 | > 10 | –
CN(C)CCc1c[nH]c2ccc(CCCc3nc(Cc4ccccc4)no3)cc12 | – | 0.0126 | – | – | –
CN(C)CCc1c[nH]c2ccc(Cc3nc(-c4ccc(NS(C)(=O)=O)cc4)no3)cc12 | – | 0.01 | – | – | –
Cc1cnc(-c2ccc3[nH]cc(CCN(C)C)c3c2)o1 | – | 0.00794 | – | – | –
NCCc1c[nH]c2ccc(CCc3nc(N)no3)cc12 | -1.51 | 0.01 | – | – | –
CC(=O)Nc1ccc(Cc2noc(Cc3ccc4[nH]cc(CCN)c4c3)n2)cc1 | -0.36 | 0.00251 | – | – | –
CN(C)CCc1c[nH]c2ccc(Cc3nc(N)no3)cc12 | – | 0.0251 | 6.4 | 2.51 | –
Cc1noc(Cc2ccc3[nH]cc(CCN(C)C)c3c2)n1 | – | 0.0501 | 5.6 | 3.98 | –
COc1ccc(Cc2noc(-c3ccc4[nH]cc(CCN)c4c3)n2)cc1 | – | 0.000794 | 6 | > 10 | –
CNS(=O)(=O)c1ccc(Cc2noc(-c3ccc4[nH]cc(CCN)c4c3)n2)cc1 | 0.25 | 0.000251 | – | – | Relative maximum [5]: 0.9; EC50 [6]: 0.0126 µM
NCCc1c[nH]c2ccc(CCc3nc(Cc4ccccc4)no3)cc12 | – | 0.00501 | 6.6 | > 10 | –
Cc1noc(Cc2ccc3[nH]cc(CCN)c3c2)n1 | -1.7 | 0.0316 | 5.5 | > 10 | –
CN(C)CCc1c[nH]c2ccc(Cc3nc(Cc4ccc(NS(C)(=O)=O)cc4)no3)cc12 | 0.5 | 0.0316 | – | – | –
COc1cccc(Cc2noc(-c3ccc4[nH]cc(CCN)c4c3)n2)c1 | – | 0.00126 | – | – | –
NCCc1c[nH]c2ccc(-c3nc(-c4ccccc4)no3)cc12 | – | 0.0794 | – | – | –
CN(C)CCc1c[nH]c2ccc(CCc3nc(Cc4ccccc4)no3)cc12 | – | 0.0126 | – | – | –
CS(=O)(=O)Nc1ccc(Cc2noc(-c3ccc4[nH]cc(CCN)c4c3)n2)cc1 [L-694247] | 0.25 | 0.000316 | 6.5 | > 10 | Relative maximum [5]: 1; EC50 [6]: 0.0158 µM
NCCc1c[nH]c2ccc(O)cc12 [SEROTONIN] | – | 0.01 | – | – | Relative maximum [7]: 1
